Paper PMC4259467, “Molecular Cloning, Characterization and Positively Selected Sites of the Glutathione S-Transferase Family from Locusta migratoria” (PLoS ONE, 2014)

Key:
Assay in all cases: spectrophotometric GST assay, steady state
Assay type in all cases: biochemical
Conditions in all cases: co-substrate GSH; pH and temperature not given; read-out: K m ^CDNB
LmGSTD7 = target: T1, LmGSTD7 (Locusta migratoria, UniProt V9Q328)
T1 construct: gene GSTd7; full-length ORF in pET28a, E. coli BL21(DE3), His-tag Ni-NTA purified
T1 sequence (V9Q328 1-233): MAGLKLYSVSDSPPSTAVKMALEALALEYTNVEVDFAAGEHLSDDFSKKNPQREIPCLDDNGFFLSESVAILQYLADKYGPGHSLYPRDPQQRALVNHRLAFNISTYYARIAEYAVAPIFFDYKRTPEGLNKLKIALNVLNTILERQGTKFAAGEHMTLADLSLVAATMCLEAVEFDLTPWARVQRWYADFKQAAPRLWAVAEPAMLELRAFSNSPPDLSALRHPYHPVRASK
Description: spectrophotometric GST assay, steady state on LmGSTD7

LmGSTD3 = target: T2, LmGSTD3 (Locusta migratoria, UniProt V9Q4H6)
T2 construct: gene GSTd3; full-length ORF in pET28a, E. coli BL21(DE3), His-tag Ni-NTA purified
T2 sequence (V9Q4H6 1-222): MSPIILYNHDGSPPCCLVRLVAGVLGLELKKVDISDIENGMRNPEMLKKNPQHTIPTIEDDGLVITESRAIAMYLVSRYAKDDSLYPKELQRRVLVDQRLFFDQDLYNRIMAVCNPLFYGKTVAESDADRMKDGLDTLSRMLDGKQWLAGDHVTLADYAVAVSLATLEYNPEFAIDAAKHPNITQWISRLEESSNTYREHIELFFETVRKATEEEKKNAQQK
Description: spectrophotometric GST assay, steady state on LmGSTD3

LmGSTD2 = target: T3, LmGSTD2 (Locusta migratoria, UniProt V9Q3Y3)
T3 construct: gene GSTd2; full-length ORF in pET28a, E. coli BL21(DE3), His-tag Ni-NTA purified
T3 sequence (V9Q3Y3 1-214): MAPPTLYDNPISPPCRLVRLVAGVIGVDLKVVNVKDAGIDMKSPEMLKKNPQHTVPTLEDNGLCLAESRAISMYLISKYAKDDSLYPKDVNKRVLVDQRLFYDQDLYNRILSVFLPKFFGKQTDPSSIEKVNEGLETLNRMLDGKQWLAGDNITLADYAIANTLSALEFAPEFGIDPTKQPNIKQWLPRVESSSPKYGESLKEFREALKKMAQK
Description: spectrophotometric GST assay, steady state on LmGSTD2

LmGSTT1 = target: T4, LmGSTT1 (Locusta migratoria, UniProt F4YUJ7)
T4 construct: full-length ORF in pET28a, E. coli BL21(DE3), His-tag Ni-NTA purified
T4 sequence (F4YUJ7 1-231): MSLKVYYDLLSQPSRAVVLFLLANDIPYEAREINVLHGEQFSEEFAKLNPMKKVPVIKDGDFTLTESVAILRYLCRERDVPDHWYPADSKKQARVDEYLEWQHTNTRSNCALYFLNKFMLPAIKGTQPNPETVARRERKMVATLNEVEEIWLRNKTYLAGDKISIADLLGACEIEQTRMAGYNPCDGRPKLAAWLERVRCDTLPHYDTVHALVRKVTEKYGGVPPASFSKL
Description: spectrophotometric GST assay, steady state on LmGSTT1

LmGSTO1 = target: T5, LmGSTO1 (Locusta migratoria, UniProt V9Q3Y6)
T5 construct: gene GSTo1; full-length ORF in pET28a, E. coli BL21(DE3), His-tag Ni-NTA purified
T5 sequence (V9Q3Y6 1-242): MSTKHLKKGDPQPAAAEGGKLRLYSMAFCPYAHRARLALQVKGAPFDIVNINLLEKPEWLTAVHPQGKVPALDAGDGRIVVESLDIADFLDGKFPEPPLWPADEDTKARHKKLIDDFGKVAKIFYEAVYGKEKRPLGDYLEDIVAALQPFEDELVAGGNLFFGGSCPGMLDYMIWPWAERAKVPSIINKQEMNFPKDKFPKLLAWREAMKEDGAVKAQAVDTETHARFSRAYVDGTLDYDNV
Description: spectrophotometric GST assay, steady state on LmGSTO1

LmGSTE5 = target: T6, LmGSTE5 (Locusta migratoria, UniProt V9Q3X9)
T6 construct: gene GSTe5; full-length ORF in pET28a, E. coli BL21(DE3), His-tag Ni-NTA purified
T6 sequence (V9Q3X9 1-221): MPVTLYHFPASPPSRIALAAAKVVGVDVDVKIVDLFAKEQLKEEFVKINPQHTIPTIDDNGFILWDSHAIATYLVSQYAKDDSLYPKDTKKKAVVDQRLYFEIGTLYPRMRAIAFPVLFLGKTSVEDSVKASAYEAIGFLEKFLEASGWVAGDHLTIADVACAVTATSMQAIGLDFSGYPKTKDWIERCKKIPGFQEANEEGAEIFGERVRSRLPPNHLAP
Description: spectrophotometric GST assay, steady state on LmGSTE5

LmGSTS7 = target: T7, LmGSTS7 (Locusta migratoria, UniProt F4YUJ6)
T7 construct: full-length ORF in pET28a, E. coli BL21(DE3), His-tag Ni-NTA purified
T7 sequence (F4YUJ6 1-204): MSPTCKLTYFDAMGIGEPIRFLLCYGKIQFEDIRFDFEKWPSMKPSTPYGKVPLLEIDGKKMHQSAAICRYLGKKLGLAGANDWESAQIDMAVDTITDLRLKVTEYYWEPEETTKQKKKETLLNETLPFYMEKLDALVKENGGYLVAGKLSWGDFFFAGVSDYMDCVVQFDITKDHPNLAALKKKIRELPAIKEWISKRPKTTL
Description: spectrophotometric GST assay, steady state on LmGSTS7

LmGSTO3 = target: T8, LmGSTO3 (Locusta migratoria, UniProt V9Q2Q7)
T8 construct: gene GSTo3; full-length ORF in pET28a, E. coli BL21(DE3), His-tag Ni-NTA purified
T8 sequence (V9Q2Q7 1-241): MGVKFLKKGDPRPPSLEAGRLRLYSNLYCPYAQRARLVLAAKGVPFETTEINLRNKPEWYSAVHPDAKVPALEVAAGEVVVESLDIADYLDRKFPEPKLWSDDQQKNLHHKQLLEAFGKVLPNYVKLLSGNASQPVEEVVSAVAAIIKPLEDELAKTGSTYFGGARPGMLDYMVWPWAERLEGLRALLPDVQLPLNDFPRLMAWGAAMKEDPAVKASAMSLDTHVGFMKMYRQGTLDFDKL
Description: spectrophotometric GST assay, steady state on LmGSTO3

Q: With `O=[N+]([O-])c1ccc(Cl)c([N+](=O)[O-])c1` [CDNB] as the compound, how does the Km (LmGSTD7) read?
A: Its Km is 492 ± 39 µM.

Q: What about the Km (LmGSTD3) of the same compound?
A: Its Km is 102 ± 10 µM.

Q: What about the Km (LmGSTD2) of the same compound?
A: The Km was 923 ± 49 µM.

Q: What about the Km (LmGSTT1) of the same compound?
A: Its Km is 260 ± 14 µM.

Q: And the Km (LmGSTO1)?
A: Its Km is 228 ± 45 µM.

Q: What about the Km (LmGSTE5) of the same compound?
A: The Km was 26 ± 2 µM.

Q: And the Km (LmGSTS7)?
A: The Km was 46 ± 1 µM.

Q: And the Km (LmGSTO3)?
A: The Km was 216 ± 4 µM.
